Experimental data from US6534501B2, “Allosteric inhibitors of pyruvate kinase” (Allos Therapeutics, Inc., priority 1998, dated 2003).

Tests used:
[1] = biological target: T1, Human Erythrocyte Pyruvate Kinase (R-PK) (Homo sapiens, UniProt P30613); assay: PK activity assay coupled with lactate dehydrogenase (NADH oxidation at 340 nm); assay type: biochemical; settings: for IC50: stock solutions in DMSO, dose-response of FIG. 6, read-out: IC50 (R-PK inhibition)
T1 construct: The four units of human whole blood obtained from the Blood Bank; from tissue
T1 sequence (P30613 whole entry): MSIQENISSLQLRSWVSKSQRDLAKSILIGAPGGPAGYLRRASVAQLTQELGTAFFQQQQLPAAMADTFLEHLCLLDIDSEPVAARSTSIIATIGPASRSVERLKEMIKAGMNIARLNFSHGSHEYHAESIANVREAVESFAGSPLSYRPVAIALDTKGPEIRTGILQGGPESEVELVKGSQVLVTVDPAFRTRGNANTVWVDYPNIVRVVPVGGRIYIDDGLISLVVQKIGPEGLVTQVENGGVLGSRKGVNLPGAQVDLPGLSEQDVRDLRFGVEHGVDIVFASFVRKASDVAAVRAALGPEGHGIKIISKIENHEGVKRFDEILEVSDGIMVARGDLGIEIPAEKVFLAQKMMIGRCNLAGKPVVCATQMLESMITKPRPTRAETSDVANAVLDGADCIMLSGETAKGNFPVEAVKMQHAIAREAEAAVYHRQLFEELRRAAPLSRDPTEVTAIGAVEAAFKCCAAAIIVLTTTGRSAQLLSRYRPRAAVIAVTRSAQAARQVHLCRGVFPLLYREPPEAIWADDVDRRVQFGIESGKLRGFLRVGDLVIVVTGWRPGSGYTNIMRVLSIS
Protocol: PK activity was measured using the assay conditions that are recommended by the International Committee for Standardization in Hematology (ICSH). […] The positive cooperativity of substrate binding is clearly seen from the upward curvature in the Lineweaver plot. The experimental data were fit to the Hill equation. The derived parameters were K0.5S=2.37 mM and Hill coefficient (nH) of 1.41.
Phenlyalanine has long been known as an allosteric inhibitor of PK. […] It can be seen from FIG. 2 that an increase in the concentration of phenlyalanine results in a decreased affinity and a more pronounced sigmoidity of the substrate binding. When phenylalanine increases from 0 to 30 mM, the K0.5S increases by 2.5 folds and nH increases by 1.4 folds, respectively. To avoid fluctuations in measurement of PK parameters, all experiments reported herein and assays were performed using the same batch of preparation and under identical conditions.
PK activity is measured by coupling it with lactate dehydrogenase, which transforms pyruvate into lactate and oxidizes NADH into NAD. A reduction of oxidation of NADH is followed at 340 nm using the 96 well plate in a Spectramax spectrophotometer (Molecular Devices, Ca.).
The assay buffer (100 mM Tris pH 7.5) was prepared by dissolving TRIS 100 mM, KCl 100 mM, EDTA 0.5 mM, and 10 MM MgCl2 in deionized water. The pH of the solution was adjusted to 7.5 by adding a small amount of TRIS. The stock solution of NADH (20 mM), ADP 100 mM (neutralized), LDH 500 IU/ml and PEP 100 mM were prepared in the assay buffer. The following quantities of reagents were added to make 1 ml of assay solution.
The contents were mixed and incubated for five minutes at 37° C. Then, 50 μl of PEP was added and the absorbance changes were followed at 340 nm. The initial reaction velocity in AU/min was then calculated.
The control samples in each experiment were incubated under the same conditions as without any compound. In all cases, the experiments were begun after saturation with PEP. The percent inhibition of PK activity was calculated by subtracting the activity of the control sample from the activity in the presence of compound.
Compounds 4(1) through 4(12) thus obtained were tested.
The percent activity values presented in FIG. 5 represent an average of six independent experiments. All examined compounds were prepared as stock solutions in DMSO.
As a control for FIG. 5, the assay was performed with DMSO, but no compound.
Otherwise, the dose-response for R-PK in FIG. 5 in this Example 5 was performed as described in the above Examples.

[2] = compound concentration 0.5 mM, pH 7.5, 37° C., after saturation with PEP
[3] = compound concentration 2 mM, pH 7.5, 37° C., after saturation with PEP
[4] = phenylalanine increases from 0 to 30 mM

Compound: 2-(9-Ethyl-9H-carbazol-3-ylvinylideneamino)-1-(4-nitrobenzoate) [(5)]
- IC50 [1]: 17.4 µM

Compound: 2-phenylethyloxy-5-formylbenzoic acid [TB 32]
- % PK Inhibition [1, 2]: 48%
- % PK Inhibition [1, 3]: 77%
- % PK Inhibition ([1]; compound concentration 3 mM, pH 7.5, 37° C., after saturation with PEP): 80%

Compound: 3-(2-{1-(3-Chlorophenyl)-1(3-hydroxyphenyl)-ureido]-ethyl}-4-oxo-4H-quinazolin-3-yl)-propionic acid [(4)]
- IC50 [1]: 16.1 µM

Compound: CCCCN(Cc1c2ccccc2c(Cl)c2ccccc12)C(=O)NCC(=O)OCC [(1), [3-Butyl-3-(10-chloro-anthracen-9-ylmethyl)-ureido]-acetic acid ethyl ester]
- IC50 [1]: > 50 µM

Compound: Cc1cccc2nc3cccc(C(=O)Nc4ccccc4C(=O)O)c3nc12 [(2), 2-[(9-Methyl-phenazine-1-carbonyl)-amino]-benzoic acid]
- IC50 [1]: 8.9 µM

Compound: O=c1oc(Nc2ccc(Cl)cc2)nc2ccccc12 [(3), 2-(4-Chloro-phenylamino)-benzo[d][1,3]oxazin-4-one]
- IC50 [1]: 20.9 µM

Compound: CCc1nc2ccccc2c(=O)n1CCc1cn(COC(=O)CCl)c2ccccc12 [(6), Chloroacetic acid 3-[2-(2-ethyl-4-oxo-4H-quinazolin-3-yl)ethyl]-indol-lylmethylester]
- IC50 [1]: 12.1 µM

Compound: COC(=O)c1sc(-c2ccc(Cl)cc2)cc1NCc1ccccc1 [(7), 3-Benzylamino-5-(4-chlorophenyl)-4H-1λ^4-thiophene-2-carboxylic acid methyl ester]
- IC50 [1]: 16.9 µM

Compound: COC(=O)c1cc(Oc2ccc(C(=O)OC)cc2NC(=O)c2cc(Cl)cc(Cl)c2)cc(C(=O)OC)c1 [(8), 5-[2-(3,5-Dichlorobenzoylamino)-4-methoxycarbonyl-phenoxy]-isophtahlic acid dimethyl ester]
- IC50 [1]: 9 µM

Compound: COC(=O)c1cc(Oc2ccc(C(=O)OC)cc2NC(=O)NC2CCCCC2)cc(C(=O)OC)c1 [(9), 5-[2-(3-Cyclohexyl-ureido)-4-methoxycarbonyl-phenoxy]-isophtahlic acid dimethyl ester]
- IC50 [1]: 9.4 µM

Compound: N[C@@H](Cc1ccccc1)C(=O)O [L-Phenylalanine, reference compound]
- inhibition at 10000 µM ([1]; compound concentration 10 mM, pH 7.5, 37° C., after saturation with PEP): 15%
- inhibition at 30000 µM ([1]; compound concentration 30 mM, pH 7.5, 37° C., after saturation with PEP): 72%
- increase of Hill coefficient nH [1, 4]: 1.4 folds
- increase of K0.5S (PEP) [1, 4]: 2.5 folds

Compound: COc1ccc(OCCCCCC(=O)O)c(C=O)c1 [TB 88, 6-(2-formyl-4-methoxyphenoxy)hexanoic acid]
- inhibition at 500 µM [1, 2]: 16%
- inhibition at 2500 µM ([1]; compound concentration 2.5 mM, pH 7.5, 37° C., after saturation with PEP): 28%

Compound: Cc1ccc(OCCCCCC(=O)O)c(C=O)c1 [TB 154, 6-(2-formyl-4-methylphenoxy)hexanoic acid]
- melting point: 97 to 99 °C
- inhibition at 500 µM [1, 2]: 19%
- inhibition at 2000 µM [1, 3]: 28%

Compound: CCC(CCCCC(=O)O)Oc1ccc([N+](=O)[O-])cc1C=O (stereo not shown) [TDD 57, 6-(2-formyl-4-nitrophenoxy)octanoic Acid]
- inhibition at 500 µM [1, 2]: 36%
